# From US11434195B2, “Compositions and methods for treatment of central nervous system tumors” (UNIVERSITY OF FLORIDA RESEARCH FOUNDATION, INC., priority 2017, dated 2022)
# “Also recorded” adds a separate entry of the source. Where a name gives a salt, the structure may show the parent alone. Read-outs that look alike come from different tables or passages of the source.
# Tests used:
# [1] = system: primary human hepatocytes; experiment: Survival of primary human hepatocytes; format: cell-based; conditions: up to 50 μM
# Description: The cell integrity and structural architecture were not altered following incubation with AIPs for a week (see FIG. 11B).
# [2] = system: CA1 cancer stem cell-derived carcinoid bodies ('carcinospheres'); experiment: Carcinoid sphere model of tumor-initiating glioblastoma stem cells; format: cell-based; conditions: Homo sapiens
# Description: Human glioblastoma cell lines CA1 (also sometimes referred to as BT73) and L1 are cells are available from the Florida Center for Brain Tumor Research University of Florida Biorepository. Glioma cells (for example CA1, U87MG or L1), are suspended by trituration as single cells and plated at a density of about 25,000 cells/mL in low adhesion plates in Neurobasal® medium containing 1% methylcellulose and growth factors. The cultures are treated with single or repeated doses of AIPs (ranging from 0.1 to 20 […]) or vehicle (control) and maintained for 24 hours, 72 hours and 7 days. The number and size of ‘carcinoid’ spheres are quantitated by inverted phase contrast microscopy, and spheres collected for analysis for determination of survival and growth/proliferation.
# This suppression of tumor-initiating glioblastoma multiforme stem/progenitor cells was determined using a ‘carcinoid sphere’ model in serum- and in anchorage-free media. The ability to block cancer stem cell activation and to destroy them is very useful for strategies to prevent glioblastoma recurrence. Here, AIPs blocked completely the activation of tumor-initiating CA1 cells and formation of carcinospheres at ≥2 μM concentrations. […] FIG. 9B is a set of representative photographs of the cells treated as indicated.
# With respect to methods, generation of carcinoid spheres from GBM was performed essentially as described previously (Cao et al., Composite fatty acid ether amides suppress growth of liver cancer cells in vitro and in an in vivo allograft mouse model, Cell. Oncol. 36(3):247-257, 2013 and Reinartz et al., Functional Subclone Profiling for Prediction of Treatment-Induced Intratumor Population Shifts and Discovery of Rational Drug Combinations in Human Glioblastoma, Clinical Cancer Research: an official journal of the American Association for Cancer Research 23(2):562-574, 2017). […] The number and size of spheres were quantitated by inverted phase contrast microscopy. […]
# [3] = Tissue accumulation after intraperitoneal injection; format: in vivo; conditions: mice, hydrochloride
# Description: To assure brain bioavailability of the inventive compounds, time-dependent brain, liver and […] AIP accumulation was measured after intraperitoneal injection of 2.0 mg AIP2. Mice were sacrificed at specific times following injection. Tissues (blood, brain and liver) were taken, and the lipids extracted, loaded on silica-gel column, washed with diethyl ether, and eluted with 10% ethyl acetate in hexane. The eluates were further purified using gradient HPLC on a C8 reverse phase column and the AIP-corresponding fraction was collected and quantitatively analyzed by […], coupled with electrospray ionization-mass-spectroscopy using internal AIP standard.
# [4] = system: AKT; experiment: AKT kinase activity / basal AKT phosphorylation in HUH-7 cells; format: cell-based, human; conditions: proliferating HUH-7 cells, 10 μM
# [5] = system: adherent CA1 human glioblastoma multiforme cells; experiment: Viability/proliferation of adherent CA1 glioblastoma cells (MTS); format: cell-based; conditions: for IC50: Homo sapiens
# Description: In addition, glioma cells were cultured (adherent) in DMEM/F12 medium with 10% FBS to attain about 70% confluency. AIP (ranging from about 1 μM to about 100 μM) was added once or twice as above for 24 hours, 48 hours, or 72 hours and analyzed at these time points for proliferation, cell death and markers.
# Ales were screened in patient glioblastoma cells CA1 cells proliferating in adherent cultures. Briefly, cells were cultured in DMEM/F12 medium with 10% FBS to attain about 70% confluency. AIP1, AIP2, or vehicle (control) were added for 24 hours and analyzed for proliferation and survival. […] Cell viability/proliferation was measured by MTS added for additional 2-3 hours (FIG. 10A). Microphotographs of the cells were taken with Hoffman modulation-equipped phase-contrast microscope (FIG. 10B; x20 magnification is shown).
compound,measurement,setting,value
"CCCCCCCC/C=C\CCCCCCCCOCC(O)CNC(C)C (stereo not shown) [AIP2, Octadecenyloxy-3-isopropylamine-propan-2-ol hydrochloride]",Survival of primary human hepatocytes,[1],did not reduce survival
same,IC50,"[2]; read-out: IC50, block of development of brain tumor-initiating stem cells",1100 nM
same,IC50,"[2]; read-out: IC50, formation and growth of CA1 cancer stem cell-derived carcinoid bodies",1100 nM
same,IC50,"[2]; read-out: IC50, inhibition of brain tumor-initiating cancer stem cells",1100 nM
same,Blood-brain barrier penetration,[3]; 24 hours after intraperitoneal injection,able to cross the blood-brain barrier; also recorded: significant blood-brain-barrier (BBB) penetration
same,Tissue accumulation of non-metabolized compound,"[3]; intraperitoneal injection of 2 mg, up to 24 hours",did accumulate in brain tissue; also recorded: accumulated in brain and liver in a time-dependent fashion
same,Basal AKT phosphorylation,[4],blocked basal AKT phosphorylation
same,Effect on adherent CA1 glioblastoma cells,"[5]; 20 μM, hydrochloride",complete shutdown of metabolic activity; also recorded: destroyed all cancer cells
same,IC50,"[5]; read-out: IC50, growth and survival of human malignant glioblastoma cells (CA1)",6.9 µM
same,IC50,"[5]; read-out: IC50, proliferating glioblastoma cells",7.1 µM
